In PubChem BioAssay AID2060902 (Molecular Pharmacology Branch, DTP, NCI, 2025):

System: 485368-065-R3-J5-PDC spheroids with HUVEC/MSC, viability
Assay: Anticancer human tumor 485368-065-R3-J5-PDC patient-derived pancreatic carcinoma cell line growth inhibition [RAS]
Details: for IC50: curve of first compound; for viability, T/C: stronger effect = lower value
In short: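 Agents were tested in combination matrices in half-log decrements from a top concentration at or near clinical Cmax (10 microM if undetermined). Targets were multi-cell spheroids of tumour lines plus HUVEC and MSC stromal cells.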
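Also: spheroids exposed to agents for seven days before readout.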

In the case of `Cc1nc(N2CCC3(CC2)COC(C)C3N)c(CO)nc1Sc1ccnc(N)c1Cl` (configuration not stated) + CCn1c(-c2cc(N3CCN(C)CC3)cnc2C(C)OC)c2c3cc(ccc31)-c1csc(n1)CC(NC(=O)C1CC1C)C(=O)N1CCCC(N1)C(=O)OCC(C)(C)C2, the IC50 (second compound 0.000949 µM) is reported as less than 31.6 nM, the IC50 (second compound 0.003 µM) is reported as less than 31.6 nM and the IC50 (second compound 0.00949 µM) is reported as less than 31.6 nM. It also gave an IC50 (second compound 0.03 µM) of less than 31.6 nM, an IC50 (second compound 0.0949 µM) of less than 31.6 nM and an IC50 (second compound 0.3 µM) of less than 31.6 nM. The viability, T/C (second compound 0.000949 µM, first compound 0.0316 µM) was 26.1%, the viability, T/C (second compound 0.000949 µM, first compound 0.1 µM) was 18.6% and the viability, T/C (second compound 0.000949 µM, first compound 0.316 µM) was 17.5%. It also gave a viability, T/C (second compound 0.000949 µM, first compound 1 µM) of 15%, a viability, T/C (second compound 0.000949 µM, first compound 3.16 µM) of 11.8% and a viability, T/C (second compound 0.000949 µM, first compound 10 µM) of 8.82%. It also gave a viability, T/C (second compound 0.003 µM, first compound 0.0316 µM) of 18.4%, a viability, T/C (second compound 0.003 µM, first compound 0.1 µM) of 15.9% and a viability, T/C (second compound 0.003 µM, first compound 0.316 µM) of 12.8%. The viability, T/C (second compound 0.003 µM, first compound 1 µM) was 10.7%, the viability, T/C (second compound 0.003 µM, first compound 3.16 µM) was 7.85% and the viability, T/C (second compound 0.003 µM, first compound 10 µM) was 4.73%. It also gave a viability, T/C (second compound 0.00949 µM, first compound 0.0316 µM) of 13.4%, a viability, T/C (second compound 0.00949 µM, first compound 0.1 µM) of 12% and a viability, T/C (second compound 0.00949 µM, first compound 0.316 µM) of 9.63%. It also gave a viability, T/C (second compound 0.00949 µM, first compound 1 µM) of 9.5%, a viability, T/C (second compound 0.00949 µM, first compound 3.16 µM) of 4.66% and a viability, T/C (second compound 0.00949 µM, first compound 10 µM) of 2.44%. It also gave a viability, T/C (second compound 0.03 µM, first compound 0.0316 µM) of 10.6%, a viability, T/C (second compound 0.03 µM, first compound 0.1 µM) of 10.2% and a viability, T/C (second compound 0.03 µM, first compound 0.316 µM) of 8.7%. The viability, T/C (second compound 0.03 µM, first compound 1 µM) was 5.25%, the viability, T/C (second compound 0.03 µM, first compound 3.16 µM) was 2.49% and the viability, T/C (second compound 0.03 µM, first compound 10 µM) was 1.01%. The viability, T/C (second compound 0.0949 µM, first compound 0.0316 µM) was 8.37%, the viability, T/C (second compound 0.0949 µM, first compound 0.1 µM) was 8.31% and the viability, T/C (second compound 0.0949 µM, first compound 0.316 µM) was 6.58%. For the same molecule, the viability, T/C (second compound 0.0949 µM, first compound 1 µM) was 3.11%, the viability, T/C (second compound 0.0949 µM, first compound 3.16 µM) was 1.36% and the viability, T/C (second compound 0.0949 µM, first compound 10 µM) was 0.74%. For the same molecule, the viability, T/C (second compound 0.3 µM, first compound 0.0316 µM) was 7.17%, the viability, T/C (second compound 0.3 µM, first compound 0.1 µM) was 6.81% and the viability, T/C (second compound 0.3 µM, first compound 0.316 µM) was 5.18%. The viability, T/C (second compound 0.3 µM, first compound 1 µM) was 2.89%, the viability, T/C (second compound 0.3 µM, first compound 3.16 µM) was 1.79% and the viability, T/C (second compound 0.3 µM, first compound 10 µM) was 0.68%.
